Data from patent US8178506B2, “Oligomeric compounds and compositions for use in modulation of small non-coding RNAs” (Regulus Therapeutics Inc., priority 2003, dated 2012).
In the oligonucleotide strings, read from the 5' end, every base follows the letter of its sugar. An asterisk marks phosphorothioate; unmarked linkages are phosphodiester. Other units and linkages are bracketed, terminal groups are in braces. A string of capitals states the bases alone. e = 2'-O-(2-methoxyethyl) (MOE); [5mC] = 5-methylcytosine

What was measured:
HSL = HSL mRNA expression in adipocytes (real-time PCR); format: cell-based, human; conditions: for HSL (mRNA expression): adipocytes, 250 nM oligomeric compound, day nine post-transfection, relative to control (1.0); for HSL mRNA: differentiating adipocytes transfected with oligomeric compound, Table 75
adipocytes = experiment: Triglyceride accumulation assay in adipocytes; format: cell-based, human
aP2 = aP2 mRNA expression in adipocytes (real-time PCR); format: cell-based, human; conditions: for AP2 (mRNA expression): adipocytes, 250 nM oligomeric compound, day nine post-transfection, relative to control (1.0); for aP2 mRNA: differentiating adipocytes transfected with oligomeric compound, Table 75
HuVECs = experiment: Endothelial tube formation assay in HuVECs; conditions: 75 nM oligomeric compound, Table 57
PPARγ = PPARγ mRNA expression in adipocytes (real-time PCR); format: cell-based, human; conditions: for PPAR gamma (mRNA expression): adipocytes, 250 nM oligomeric compound, day nine post-transfection, relative to control (1.0); for PPAR gamma mRNA: differentiating adipocytes transfected with oligomeric compound, Table 75
Glut4 = Glut4 mRNA expression in adipocytes (real-time PCR); format: cell-based, human; conditions: for Glut4 (mRNA expression): adipocytes, 250 nM oligomeric compound, day nine post-transfection, relative to control (1.0); for GLUT4 mRNA: differentiating adipocytes transfected with oligomeric compound, Table 75
[1] = adipocytes, 250 nM oligomeric compound, relative to control (1.0), Table 15
[2] = differentiating adipocytes transfected with oligomeric compound, Table 75

Substance	HSL (mRNA expression) (HSL; Table 15)	HSL (mRNA expression) (HSL; Table 16)	TG (triglyceride accumulation) (adipocytes; [1])	TG (triglyceride accumulation) (adipocytes; adipocytes, 250 nM oligomeric compound, relative to control (1.0), Table 16)	AP2 (mRNA expression) (aP2; Table 15)	AP2 (mRNA expression) (aP2; Table 16)	% Activity Relative to UTC (tube formation) (HuVECs) [%]	PPAR gamma (mRNA expression) (PPARγ; Table 15)	PPAR gamma (mRNA expression) (PPARγ; Table 16)	Glut4 (mRNA expression) (Glut4; Table 15)	Glut4 (mRNA expression) (Glut4; Table 16)	HSL mRNA (HSL)	TG (triglyceride accumulation) (adipocytes; [2])	aP2 mRNA (aP2)	PPAR gamma mRNA (PPARγ)	GLUT4 mRNA (Glut4)
327905 (antisense e[5mC]*eA*eG*eA*e[5mC]*eT*e[5mC]*e[5mC]*eG*eG*eT*eG*eG*eA*eA*eT*eG*eA*eA*eG*eG*eA) [compound 327905]	1.11	0.69	0.69	0.58	1.14	0.68	48.3	0.54	0.83	0.84	0.40	–	–	–	–	–
327906 (antisense eT*e[5mC]*eA*eT*eA*eG*e[5mC]*e[5mC]*e[5mC]*eT*eG*eT*eA*e[5mC]*eA*eA*eT*eG*e[5mC]*eT*eG*e[5mC]*eT) [compound 327906]	–	–	–	–	–	–	69.0	–	–	–	–	37 percentage of untreated control (UTC)	25 percentage of untreated control (UTC)	46 percentage of untreated control (UTC)	50 percentage of untreated control (UTC)	14 percentage of untreated control (UTC)
327907 (antisense eA*eG*e[5mC]*e[5mC]*eT*eA*eT*e[5mC]*e[5mC]*eT*eG*eG*eA*eT*eT*eA*e[5mC]*eT*eT*eG*eA*eA) [compound 327907]	–	–	–	–	–	–	62.1	–	–	–	–	21 percentage of untreated control (UTC)	19 percentage of untreated control (UTC)	29 percentage of untreated control (UTC)	49 percentage of untreated control (UTC)	6 percentage of untreated control (UTC)
327910 (antisense eT*eG*eA*eT*eA*eG*e[5mC]*e[5mC]*e[5mC]*eT*eG*eT*eA*e[5mC]*eA*eA*eT*eG*e[5mC]*eT*eG*e[5mC]*eT) [compound 327910]	–	–	–	–	–	–	55.2	–	–	–	–	32 percentage of untreated control (UTC)	24 percentage of untreated control (UTC)	35 percentage of untreated control (UTC)	39 percentage of untreated control (UTC)	16 percentage of untreated control (UTC)
327911 (antisense eG*e[5mC]*eT*eA*e[5mC]*e[5mC]*eT*eG*e[5mC]*eA*e[5mC]*eT*eG*eT*eA*eA*eG*e[5mC]*eA*e[5mC]*eT*eT*eT*eT) [compound 327911]	–	–	–	–	–	–	75.9	–	–	–	–	71 percentage of untreated control (UTC)	59 percentage of untreated control (UTC)	76 percentage of untreated control (UTC)	75 percentage of untreated control (UTC)	48 percentage of untreated control (UTC)
327913 (antisense eA*eA*e[5mC]*e[5mC]*eG*eA*eT*eT*eT*e[5mC]*eA*eA*eA*eT*eG*eG*eT*eG*e[5mC]*eT*eA*eG) [compound 327913]	0.92	–	0.59	–	0.99	–	69.0	0.72	–	0.84	–	–	–	–	–	–
327916 (antisense eT*eG*eG*e[5mC]*eA*eT*eT*e[5mC]*eA*e[5mC]*e[5mC]*eG*e[5mC]*eG*eT*eG*e[5mC]*e[5mC]*eT*eT*eA*eA) [compound 327916]	–	–	–	–	–	–	96.6	–	–	–	–	64 percentage of untreated control (UTC)	56 percentage of untreated control (UTC)	67 percentage of untreated control (UTC)	71 percentage of untreated control (UTC)	51 percentage of untreated control (UTC)
327917 (antisense eT*e[5mC]*eA*eA*e[5mC]*eA*eT*e[5mC]*eA*eG*eT*e[5mC]*eT*eG*eA*eT*eA*eA*eG*e[5mC]*eT*eA) [compound 327917]	–	–	–	–	–	–	82.8	–	–	–	–	26 percentage of untreated control (UTC)	26 percentage of untreated control (UTC)	32 percentage of untreated control (UTC)	54 percentage of untreated control (UTC)	15 percentage of untreated control (UTC)
